According to ChEMBL document CHEMBL6083295, “Natural Products Driven Medicinal Chemistry” (J Med Chem, 2024):
In brackets after ≈: the same amount, converted by molar mass. Values belong to the compound of their own block, whether it stands above or below them.

Tests used:
[1] = test system: B16; assay: Cytotoxicity against mouse B16 cells; format: functional, cell-based
[2] = test system: HCT-116; assay: Antiproliferative activity against human HCT-116 cells
[3] = test system: MDA-MB-231; assay: Antitumor activity against human MDA-MB-231 cells xenografted in triple-negative breast cancer xenograft model assessed as tumor growth inhibition at 15 mg/kg relative to control; format: functional; conditions: read-out: TGI
[4] = test system: MDA-MB-231; assay: Antitumor activity against human MDA-MB-231 cells xenografted in triple-negative breast cancer xenograft model assessed as tumor growth inhibition at 30 mg/kg relative to control; format: functional; conditions: read-out: TGI
[5] = test system: Staphylococcus aureus; assay: Potentiation of gentamicin-induced antibiofilm activity against Staphylococcus aureus assessed as disruption of preformed biofilm by measuring fold increase in gentamicin activity; format: functional
[6] = test system: Staphylococcus aureus; assay: Potentiation of vancomycin-induced antibiofilm activity against Staphylococcus aureus assessed as disruption of preformed biofilm by measuring fold increase in vancomycin activity; format: functional
[7] = test system: Staphylococcus sp.; assay: Antibacterial activity against Staphylococcus species; format: functional
[8] = test system: Acinetobacter; assay: Antibacterial activity against Acinetobacter; format: functional

SMILES: COC[C@@H](OC)C(=O)O[C@H](CC[C@H](C)[C@H](C[C@@H]1OC(=O)C[C@@H](O)C/C=C/C(=O)[C@H](C)[C@H](OC)c2coc(n2)-c2coc(n2)-c2coc(n2)/C=C\C[C@H](OC)[C@H]1C)OC)[C@H](C)[C@H](OC(C)=O)[C@H](C)/C=C/N(C)C=O
IC50 [1]: 0.5 nM

SMILES: COc1ccc2cc(NC(=O)C3=NO[C@H]4[C@H](O)C=C[C@@H](Cl)[C@@]4(O)C3)c(=O)oc2c1OC [TRICHODERMAMIDE B]
IC50 [2]: 120 nM

SMILES: CC(C)C[C@@H](CO)N1CCc2c(oc3c2C(=O)C(=O)c2ccccc2-3)C1
inhibition in vivo at 15 mg/kg [3]: 42.2%
inhibition in vivo at 30 mg/kg [4]: 60.4%

SMILES: CC(=O)[C@H](C)C[C@@H](C)C[C@H](C)C(=O)C1=C(O)/C(=C/c2ccccc2)NC1=O
fold change (FC) [5]: 115
fold change (FC) [6]: 31

MIC [7]: 0.06 µg/mL (≈ 0.0757 µM)
MIC [8]: 0.06 µg/mL (≈ 0.0757 µM)
SMILES: C#CC[C@H](NC(=O)c1ccc(NC(=O)c2ccc(C#N)cc2)cc1)C(=O)Nc1ccc(C(=O)Nc2ccc(C(=O)Nc3ccc(C(=O)O)cc3)c(O)c2OC(C)C)cc1
